The source of these data is patent US12497405B2, “Bicyclic heterocycle compounds methods of use thereof for the treatment of herpes viruses” (Merck Sharp & Dohme LLC, priority 2019, dated 2025).

Test [1] has as its target Human cytomegalovirus DNA polymerase (Human cytomegalovirus (strain AD169) (HHV-5) (Human herpesvirus 5), UniProt P08546). In words: CMV polymerase assay (AlphaLISA). The class given is biochemical. As to conditions: HCMV polymerase 0.2 nM, 30 min pre-incubation, 60 minute at 37° C. In short, it runs like this: (§1)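 Baculovirus/SF21-expressed polymerase (HCMV 0.2 nM, VZV 0.4 nM final) was preincubated 30 min at room temperature with compound in HEPES pH 7.5/Mg buffer. Reactions with 1.6 nM DIG-primer/template, low nM dNTPs and biotin-dUTP ran 60 min at 37 °C. AlphaLISA readout, normalized to controls, 4-parameter IC50.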

For test [2], the target named is varicella zoster virus DNA polymerase (Varicella-zoster virus (strain Dumas) (HHV-3) (Human herpesvirus 3), UniProt P09252). Description: VZV polymerase assay (AlphaLISA). The conditions noted are these: VZV polymerase 0.4 nM, 30 min pre-incubation, 60 minute at 37° C. The test is classed as biochemical. In short, it runs like this: as §1
Background: Bead proximity is the source of the signal in Alpha formats.

The subject of another test is CMV. Description: Viral qPCR assay, CMV. As to conditions: Human betaherpesvirus 5, 72 h, infected cells, viral genome copies by qPCR normalized to PPIA, read-out: CMV Cell EC50. The class given is cell-based. The method, boiled down: (§2)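 Compound is titrated in ten 3-fold steps onto virus-infected MRC5, Vero or MeWo cells, which replicate for about 72 hrs. After detergent/proteinase K lysis, qPCR measures viral and PPIA copy numbers, and the normalized % effect gives an EC50.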

A further test relates to HSV1. In words: Viral qPCR assay, HSV1. As to conditions: Human alphaherpesvirus 1, 72 h, infected cells, viral genome copies by qPCR normalized to PPIA, read-out: HSV1 Cell EC50. The class given is cell-based. In short, it runs like this:
as §2

The subject of a further test is HSV2. In words: Viral qPCR assay, HSV2. The test is classed as cell-based. As to conditions: Human alphaherpesvirus 2, 72 h, infected cells, viral genome copies by qPCR normalized to PPIA, read-out: HSV2 Cell EC50. The method, boiled down: as §2
(In general: In qPCR the cycle at which signal appears reflects the starting amount.)

Usually IC50 stands for the midpoint of a concentration-inhibition curve. Usually EC50 stands for the concentration at which the effect is half-maximal. Take `Cc1nc2cc(-c3cc4n(n3)CCN(C)C4)c(O[C@H]3CCN4C(=O)OC[C@@H]4C3)cc2c(=O)n1Cc1ccc(Cl)cc1` [Example 86]: the IC50 in test [1] and in test [2] was 0.44 nM throughout. Moreover, the EC50 was found to be 68 nM with CMV, 58 nM with HSV1 and 41 nM in the test on HSV2.
As for `Cc1nc2cc(-c3cn4c(n3)CN(C)CC4)c(O[C@H]3CCN4C(=O)OC[C@@H]4C3)cc2c(=O)n1Cc1ccc(C#N)cc1` [Example 87], the IC50 came to 0.44 nM in test [1] and 0.8 nM in test [2]. For the same compound, the results for the EC50 with CMV, in the test on HSV1 and in the test on HSV2 were 198 nM, 313 nM and 275 nM, respectively.
For `COc1cnc(-c2cc3nc(C)n(Cc4ccc(Cl)cc4)c(=O)c3cc2O[C@H]2CCN3C(=O)OC[C@@H]3C2)nc1` [Example 88] the same measures were 28 nM, 25 nM, 718 nM, 543 nM and 225 nM.
Consider `Cc1ncc(-c2cc3nc(C)n(Cc4ccc(Cl)cc4)c(=O)c3cc2O[C@H]2CCN3C(=O)OC[C@@H]3C2)cn1` [Example 90], for which the IC50 in test [1] stood at 18 nM; in test [2], 16 nM. In addition, the concentration for a half-maximal effect (EC50) in the test with CMV was 241 nM; in the test on HSV1, 214 nM; in the test on HSV2, 115 nM.
For `Cc1nc2cc(-c3cnc(C4CC4)nc3)c(O[C@H]3CCN4C(=O)OC[C@@H]4C3)cc2c(=O)n1Cc1ccc(Cl)cc1` [Example 95] the same measures were 18 nM, 19 nM, 366 nM, 301 nM and 182 nM.
For `Cc1nc2cc(-c3cnc(N4CCOCC4)nc3)c(O[C@H]3CCN4C(=O)OC[C@@H]4C3)cc2c(=O)n1Cc1ccc(Cl)cc1` [Example 97], in that order: 14 nM, 15 nM, 198 nM, 163 nM and 96 nM.
For `CCOc1ncc(-c2cc3nc(C)n(Cc4ccc(Cl)cc4)c(=O)c3cc2O[C@H]2CCN3C(=O)OC[C@@H]3C2)cn1` [Example 98], in that order: 16 nM, 15 nM, 284 nM, 256 nM and 185 nM.
In the case of `Cc1nc2cc(-c3cc4n(n3)CCN(CC(F)(F)F)C4)c(O[C@H]3CCN4C(=O)OC[C@@H]4C3)cc2c(=O)n1Cc1ccc(Cl)cc1` [Example 147], the half-inhibitory concentration (IC50) in test [1] was determined as 7 nM; in test [2], 12 nM. Further, the results for the concentration giving a half-maximal response (EC50) in the test on CMV, in the test on HSV1 and in the test on HSV2 were 229 nM, 274 nM and 96 nM, respectively.
